Measured values from article PMC12717099, “Peptidoglycan recruitment by a penicillin binding protein” (Nature Communications, 2025).

Experiments:
PBP5 (PBP5_37-678) = experiment: NMR chemical shift perturbation titration (2D [1H,15N] TROSY, 2D [1H,13C] ILV methyl HMQC) of stem peptides / PG into PBP5; type: binding, Enterococcus faecium; conditions: peptides up to 1:80 PBP5:SP (SP3 1:1000); PG 1:0.25-1:5
Description: Data was processed using Topspin 4.1.4 (Bruker) and analyzed using NMRFAM-SPARKY 1.3 and Poky (build number 20240829)[20],[21]. The sequence-specific backbone assignment of PBP5 is publicly available at BMRBID 51690.
SPs (SP1 to SP7) were titrated into 0.5 mM (^2H,^15N)-labeled and 0.1 mM (^2H,^15N)/^13C ILV labeled PBP5 at molar ratios of 0:1, 5:1, 10:1, 20:1, 40:1, 60:1, and 80:1 (stem peptide/SP:PBP5; molar ratios). 2D [^1H,^15N] TROSY or 2D [^1H,^13C] HMQC spectra were recorded for each titration point. SPs were solubilized in NMR buffer. Chemical shift perturbations (Δδ) between PBP5 and SP bound PBP5 spectra were calculated using Eq. 1,1 Δδppm=ΔδH^2+ΔδX/Y^2 where, X is ^15N or ^13C and Y is the constant i.e., 10 for ^15N and 4 for ^13C.
Residues with significant CSPs were identified by calculating the standard deviation of all CSPs (σ), then excluding any CSPs larger than average+2σ, recalculating σ as a new corrected σ0, and then repetitively removing CSPs above 2σ0 until no additional CSPs can be removed. CSPs above ≥2σ2 was the statistical threshold for ^1H/^15N backbone CSP analysis and ≥2xσ1 for ^1H/^13C methyl ILV data for the interaction of SP1 with PBP5. The same threshold values were used for all other peptides to allow for direct comparison with the SP1/PBP5 interaction. The identical significance analysis was also performed for PenG/ceftaroline saturated PBP5 (1:8 molar ratio of PBP5 to β-lactam antibiotics was used to ensure saturation of an extended time period needed for the SP titrations) SP interaction studies; CSPs above ≥2σ3 was the statistical threshold for ^1H/^15N backbone CSP analysis and ≥2xσ2 for ^1H/^13C methyl ILV data to identify all residues with a statistically significant change in its chemical shift upon SP interaction.
Residue specific KD values were calculated by using Eq. 2[23],2 CSPobs=CSPmax/2PP+S+KD−P+S+KD^2−4[S][P] where P and S are the concentration of PBP5 and SP1, respectively. CSPobs is the experimentally observed chemical shift value and CSPmax is the largest experimentally observed chemical shift value of the residue. […] The lack of saturation was due to the limited amount of available SP peptide due to their difficult synthesis. Residues used for KD calculation were common residues with statistically significant CSPs in the interaction studies of SP1 and SP2 with PBP5 at a 1:80 ratio.

PBP5 = experiment: 1D 1H STD NMR of stem peptides with PBP5; type: binding, Enterococcus faecium; conditions: for STD % to SP1: normalised to highest SP1:PBP5 value; for STD amplification factor: protein:peptide 1:100, 2 s saturation, 308 K
Excerpt: Total saturation time for STD measurements was 2 s.
Overlapped peaks were completely excluded from the analysis.

Substance: D-Ala-D-Ala [SP3]
- interaction with PBP5 by CSPs, in words (PBP5 (PBP5_37-678)): no CSPs were observed

Substance: D-Lac-L-Ala-D-iGln-Gly-D-Ala-D-Ala [SP4, SP with L-Lys(D-iAsn) replaced by Gly]
- interaction with PBP5 by CSPs, in words (PBP5 (PBP5_37-678)): interacts with PBP5 very poorly
- STD amplification factor as fraction of highest SP1:PBP5 value (PBP5; 1H DA4β, DLacβ): 0.2081
- STD % to SP1 (PBP5; 1H DA4β, DLacβ): 20.809%
- STD amplification factor (PBP5; 1H DA4β, DLacβ): 5.599
- STD amplification factor as fraction of highest SP1:PBP5 value (PBP5; 1H DA5α): 0.5864
- STD % to SP1 (PBP5; 1H DA5α): 58.6405%
- STD amplification factor (PBP5; 1H DA5α): 15.7792
- STD amplification factor as fraction of highest SP1:PBP5 value (PBP5; 1H DA5β): 0.2717
- STD % to SP1 (PBP5; 1H DA5β): 27.1666%
- STD amplification factor (PBP5; 1H DA5β): 7.3101
- STD amplification factor as fraction of highest SP1:PBP5 value (PBP5; 1H DQ2α,Dlacα,DA4α,LA1α): 0.3132
- STD % to SP1 (PBP5; 1H DQ2α,Dlacα,DA4α,LA1α): 31.3217%
- STD amplification factor (PBP5; 1H DQ2α,Dlacα,DA4α,LA1α): 8.428
- STD amplification factor as fraction of highest SP1:PBP5 value (PBP5; 1H DQ2β (first listed)): 0.6761
- STD % to SP1 (PBP5; 1H DQ2β (first listed)): 67.6099%
- STD amplification factor (PBP5; 1H DQ2β (first listed)): 18.1927
- STD amplification factor as fraction of highest SP1:PBP5 value (PBP5; 1H DQ2β (second listed)): 0.8081
- STD % to SP1 (PBP5; 1H DQ2β (second listed)): 80.8137%
- STD amplification factor (PBP5; 1H DQ2β (second listed)): 21.7457
- STD amplification factor as fraction of highest SP1:PBP5 value (PBP5; 1H DQ2γ): 0.2977
- STD % to SP1 (PBP5; 1H DQ2γ): 29.7735%
- STD amplification factor (PBP5; 1H DQ2γ): 8.012
- STD amplification factor as fraction of highest SP1:PBP5 value (PBP5; 1H G3α): 0.19
- STD % to SP1 (PBP5; 1H G3α): 19.0039%
- STD amplification factor (PBP5; 1H G3α): 5.114
- STD amplification factor as fraction of highest SP1:PBP5 value (PBP5; 1H LA1β): 0.2515
- STD % to SP1 (PBP5; 1H LA1β): 25.1468%
- STD amplification factor (PBP5; 1H LA1β): 6.767

Substance: D-Lac-L-Ala-D-iGln-L-Lys-D-Ala-D-Ala [SP5]
- interaction with PBP5 by CSPs, in words (PBP5 (PBP5_37-678)): weaker interaction
- STD amplification factor as fraction of highest SP1:PBP5 value (PBP5; 1H D5α): 0.4969
- STD % to SP1 (PBP5; 1H D5α): 49.685%
- STD amplification factor (PBP5; 1H D5α): 13.3694
- STD amplification factor as fraction of highest SP1:PBP5 value (PBP5; 1H DA4α,LA1α): 0.2481
- STD % to SP1 (PBP5; 1H DA4α,LA1α): 24.8062%
- STD amplification factor (PBP5; 1H DA4α,LA1α): 6.675
- STD amplification factor as fraction of highest SP1:PBP5 value (PBP5; 1H DA4β, DLacβ): 0.2031
- STD % to SP1 (PBP5; 1H DA4β, DLacβ): 20.3132%
- STD amplification factor (PBP5; 1H DA4β, DLacβ): 5.466
- STD amplification factor as fraction of highest SP1:PBP5 value (PBP5; 1H DA5β): 0.283
- STD % to SP1 (PBP5; 1H DA5β): 28.3024%
- STD amplification factor (PBP5; 1H DA5β): 7.616
- STD amplification factor as fraction of highest SP1:PBP5 value (PBP5; 1H DQ2α,Dlacα): 0.2004
- STD % to SP1 (PBP5; 1H DQ2α,Dlacα): 20.0424%
- STD amplification factor (PBP5; 1H DQ2α,Dlacα): 5.393
- STD amplification factor as fraction of highest SP1:PBP5 value (PBP5; 1H DQ2β (first listed)): 0.5843
- STD % to SP1 (PBP5; 1H DQ2β (first listed)): 58.4308%
- STD amplification factor (PBP5; 1H DQ2β (first listed)): 15.7228
- STD amplification factor as fraction of highest SP1:PBP5 value (PBP5; 1H DQ2β (second listed)): 0.7133
- STD % to SP1 (PBP5; 1H DQ2β (second listed)): 71.3266%
- STD amplification factor (PBP5; 1H DQ2β (second listed)): 19.1928
- STD amplification factor as fraction of highest SP1:PBP5 value (PBP5; 1H DQ2γ): 0.2744
- STD % to SP1 (PBP5; 1H DQ2γ): 27.4437%
- STD amplification factor (PBP5; 1H DQ2γ): 7.385
- STD amplification factor as fraction of highest SP1:PBP5 value (PBP5; 1H K3α): 0.381
- STD % to SP1 (PBP5; 1H K3α): 38.104%
- STD amplification factor (PBP5; 1H K3α): 10.2532
- STD amplification factor as fraction of highest SP1:PBP5 value (PBP5; 1H K3β): 0.5122
- STD % to SP1 (PBP5; 1H K3β): 51.2163%
- STD amplification factor (PBP5; 1H K3β): 13.7815
- STD amplification factor as fraction of highest SP1:PBP5 value (PBP5; 1H K3δ): 0.5418
- STD % to SP1 (PBP5; 1H K3δ): 54.1786%
- STD amplification factor (PBP5; 1H K3δ): 14.5786
- STD amplification factor as fraction of highest SP1:PBP5 value (PBP5; 1H K3ε): 0.2671
- STD % to SP1 (PBP5; 1H K3ε): 26.7058%
- STD amplification factor (PBP5; 1H K3ε): 7.186
- STD amplification factor as fraction of highest SP1:PBP5 value (PBP5; 1H LA1β): 0.2119
- STD % to SP1 (PBP5; 1H LA1β): 21.1895%
- STD amplification factor (PBP5; 1H LA1β): 5.702

Substance: D-Lac-L-Ala-D-nGln-L-Lys(D-iAsn)-D-Ala-D-Ala [SP6]
- interaction with PBP5 by CSPs, in words (PBP5 (PBP5_37-678)): more akin to that of SP1 than SP4
- STD amplification factor as fraction of highest SP1:PBP5 value (PBP5; 1H DA4α,LA1α,DQ2α): 0.3043
- STD % to SP1 (PBP5; 1H DA4α,LA1α,DQ2α): 30.434%
- STD amplification factor (PBP5; 1H DA4α,LA1α,DQ2α): 8.1893
- STD amplification factor as fraction of highest SP1:PBP5 value (PBP5; 1H DA4β, DLacβ): 0.3219
- STD % to SP1 (PBP5; 1H DA4β, DLacβ): 32.1881%
- STD amplification factor (PBP5; 1H DA4β, DLacβ): 8.661
- STD amplification factor as fraction of highest SP1:PBP5 value (PBP5; 1H DA5α): 0.8446
- STD % to SP1 (PBP5; 1H DA5α): 84.4584%
- STD amplification factor (PBP5; 1H DA5α): 22.7264
- STD amplification factor as fraction of highest SP1:PBP5 value (PBP5; 1H DA5β): 0.4039
- STD % to SP1 (PBP5; 1H DA5β): 40.3917%
- STD amplification factor (PBP5; 1H DA5β): 10.8688
- STD amplification factor as fraction of highest SP1:PBP5 value (PBP5; 1H DQ2β (first listed)): 0.9448
- STD % to SP1 (PBP5; 1H DQ2β (first listed)): 94.4801%
- STD amplification factor (PBP5; 1H DQ2β (first listed)): 25.4231
- STD amplification factor as fraction of highest SP1:PBP5 value (PBP5; 1H DQ2β (second listed)): 1.053
- STD % to SP1 (PBP5; 1H DQ2β (second listed)): 105.321%
- STD amplification factor (PBP5; 1H DQ2β (second listed)): 28.3401
- STD amplification factor as fraction of highest SP1:PBP5 value (PBP5; 1H DQ2γ): 0.4867
- STD % to SP1 (PBP5; 1H DQ2γ): 48.6725%
- STD amplification factor (PBP5; 1H DQ2γ): 13.097
- STD amplification factor as fraction of highest SP1:PBP5 value (PBP5; 1H K3β): 0.991
- STD % to SP1 (PBP5; 1H K3β): 99.098%
- STD amplification factor (PBP5; 1H K3β): 26.6657
- STD amplification factor as fraction of highest SP1:PBP5 value (PBP5; 1H K3δ): 0.802
- STD % to SP1 (PBP5; 1H K3δ): 80.2012%
- STD amplification factor (PBP5; 1H K3δ): 21.5809
- STD amplification factor as fraction of highest SP1:PBP5 value (PBP5; 1H LA1β): 0.4375
- STD % to SP1 (PBP5; 1H LA1β): 43.7522%
- STD amplification factor (PBP5; 1H LA1β): 11.773
- STD amplification factor as fraction of highest SP1:PBP5 value (PBP5; 1H iNα ,Dlacα,K3α): 0.4025
- STD % to SP1 (PBP5; 1H iNα ,Dlacα,K3α): 40.2497%
- STD amplification factor (PBP5; 1H iNα ,Dlacα,K3α): 10.8306
- STD amplification factor as fraction of highest SP1:PBP5 value (PBP5; 1H iNβ): 0.4322
- STD % to SP1 (PBP5; 1H iNβ): 43.2239%
- STD amplification factor (PBP5; 1H iNβ): 11.6309
